The text below walks through data of patent publication US8895695B2, “Template-fixed beta-hairpin peptidomimetics with CXCR4 antagonizing activity” (priority 2003, dated 2014).

Bridge positions count the residues as written; N and C are the ends. Square brackets hold non-standard residues; d marks the D form. Peptide text beside a SMILES is read from it. 2Nal = N[C@@H](Cc1ccc2ccccc2c1)C(=O)O; Cit = NC(=O)NCCC[C@H](N)C(=O)O

The subject of one data set is CCRF-CEM cells. Put plainly: Chemotactic assay (cell migration assay). The class given is cell-based. Conditions: 1 nM SDF-1, 4 hours. On the procedure:
(§1) All fine chemicals came from Merck (Darmstadt, Germany).
2.7. Chemotactic Assay (Cell Migration Assay)
The chemotactic response of CCRF-CEM cells to a gradient of stromal cell-derived factor 1α (SDF-1) was measured using disposable assay plates from Neuroprobe (5μ pore size) (Gaithersburg, Md.), according to the manufacturer's directions and references therein [especially ref. 8, below]. Briefly, one 175 cm^2 flask was washed once with Dubecco's phosphate buffered saline (DPBS), and trypsinized for 10 minutes or until cells had lifted. The trypsin was neutralized by the addition of fresh medium containing serum and the cells were pelleted, washed once in DPBS, and resuspended at 1-0.5×10^7 cells/ml in RPMI+0.5% bovine serum albumin (BSA). 45 μl of cell suspension were mixed with 5 μl of 10-fold concentrated PEM peptide diluted in the same assay medium. […] The optical absorbance at 595 nm (ABS595) was read using a Tecan Genios plate reader with Magellan software. The number of cells migrated was determined by comparing ABS595 values against a standard curve generated with a known number of cells in the assay plate and were plotted against SDF-1 concentration to obtain a sigmoidal curve and to determine the IC50 values. The values for IC50 were determined using the Trendline function in Microsoft Excel by fitting a logarithmic curve to the averaged datapoints.

Data set [1] deals with 'CCR5' cells / Hut/4-3 cells co-cultivation. Nature of the data set: FIGS-Assay. Conditions: 200 nM peptide, 48 hours of co-cultivation. The class given is cell-based. On the procedure:
The assay was performed according to ref. 5, below. Stock dilutions of the peptides (10 mM) were prepared by dissolving in 10 mM Tris-HCl at room temperature. Stock solutions were kept at +4° C., light protected. Working dilutions were prepared extemporaneously by serial dilution in Phosphate Buffered Saline (PBS) and added in a final volume of 10 μl directly to the cell cultures. After 48 hours of co-cultivation the cultures were rinsed with PBS and then exposed to glutaraldehyde/formaldehyde (0.2%/2%) in PBS for five minutes. For photometric quantification the fixed cultures were subsequently incubated with ortho-nitro-phenyl-galactopyranoside (ONPG) as a β-galactosidase substrate, which was enzymatically converted into the chromophore ortho-nitrophenol (ONP). The read out is directly obtained by measuring optical density of wells at 405 nm in an iEMS 96well-plate reader.
as §1

The next data set deals with CXCR4 (Homo sapiens, UniProt P61073). Put plainly: Ca2+-assay method 1: CXCR4-antagonizing activity. In kind it is cell-based. Further details: expressed in transfected cells. Conditions: method 1 (Ex. 1-53), CXCR4 transfected pre-B cells, Fura-2; read-out: IC50 (nM) Ca^2+ assay. The method, then:
2.2. Ca^2+-Assay: CXCR4-Antagonizing Activity of the Peptides.
The cells were washed free from Fura-2-AM with a platelet centrifuge and resuspended in 800 μl MSB containing 5 mM D-Glucose. The peptides to be administered were diluted to a 100 fold end concentration in MSB/0.2% PPL, and 8 μl were injected. […] Measurements were done under continuous stirring at 37° C. The signal intension was calibrated with 3 mM CaCl2/[…] lonomycin (maximal fura-2-acetoxymethylester saturation) and 10 μM MnCl2 (minimal Fura-2-acetoxymethylester saturation) and [Ca^2+]i-changes are presented in % fora-2-acetoxymethylester saturation. The rate of [Ca^2+]i-changes was calculated on the basis of the initial [Ca^2+]i-changes and plotted in dependence of chemokine concentration to obtain a sigmoidal curve and to determine the IC50 values.
Osmolarity: 310 mOsm adjusted with NaOH or HCl, adjusted with H2O or PBS.
MSB plus: 5 mM D-glucose in MSB (50 mg/50 mL).
Fura 2-acetoxymethylester: 1 mM stock solution in dimethylsulfoxide.

The nature of data set [2]: Cytotoxicity assay (MTT reduction), HELA cells.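 Further: MTT reduction read as absorbance at 595 nm, blank-corrected and expressed as percent growth relative to the time-zero cell reading, triplicate wells per concentration.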 Conditions: human, HELA cells (Acc57). (Tetrazolium dyes change colour on reduction, which living cells bring about.)
Data set [3] has as its system human red blood cells (hRBC). Put plainly: Hemolysis. The class given is cell-based. The procedure, abridged:
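Washed fresh human erythrocytes (20% v/v, about 0.9×10^9 cells/ml final) incubated with peptide at 100 μM for 1 h at 37° C. Supernatant diluted 20-fold and OD540 read. Percent hemolysis relative to 0.1% Triton X-100 in H2O (100%), with PBS alone as 0%.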

Sequence of CXCR4 (P61073 whole entry): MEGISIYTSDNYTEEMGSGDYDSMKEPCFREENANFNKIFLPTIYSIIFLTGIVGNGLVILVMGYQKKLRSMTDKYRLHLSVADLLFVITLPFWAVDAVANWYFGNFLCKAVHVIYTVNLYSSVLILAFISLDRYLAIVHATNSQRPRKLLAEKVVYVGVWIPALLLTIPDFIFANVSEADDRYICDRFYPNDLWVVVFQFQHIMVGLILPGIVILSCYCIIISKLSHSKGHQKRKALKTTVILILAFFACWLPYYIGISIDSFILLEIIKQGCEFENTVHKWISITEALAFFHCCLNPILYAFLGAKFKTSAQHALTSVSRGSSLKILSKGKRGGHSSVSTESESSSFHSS

Consider `N=C(N)NCCC[C@@H]1NC(=O)CNC(=O)CNC(=O)[C@H](CCCNC(=N)N)NC(=O)[C@@H]2CSSC[C@H](NC(=O)[C@H](Cc3ccc4ccccc4c3)NC(=O)[C@H](CCCNC(=N)N)NC1=O)C(=O)N[C@@H](Cc1ccc(O)cc1)C(=O)N[C@@H](CCCNC(N)=O)C(=O)N[C@@H](CCCCN)C(=O)N1CCC[C@@H]1C(=O)N1CCC[C@H]1C(=O)N[C@@H](Cc1ccc(O)cc1)C(=O)N[C@@H](CCCNC(=N)N)C(=O)N[C@@H](CCCNC(N)=O)C(=O)N2` [Ex. 52] (cyclo(YR[Cit]CRGGRR[2Nal]CY[Cit]K[dP]P); disulfide 4-11), for which the values for the IC50 in the data set on CCRF-CEM cells and at CXCR4 were 2.75 µM and 3.1 nM, respectively. For the same molecule, the “FIGS % inhibition at 200 nM” value in data set [1] came out at 95.4%. In data set [2], the CC50 (in general, the concentration that lowers cell viability or growth by half) at 48 h stood at 99 µM. For the same molecule, in data set [3], the Hemolysis at 100 μM was found to be 0%.
